# Test results reported in patent US9499519B2, “Fused pyrimidine compounds and use thereof” (Medivation Technologies, Inc., priority 2012, dated 2016).
# Assays:
# Type in all cases: biochemical
# c-Met = c-Met (Homo sapiens, UniProt P08581); test: HotSpot kinase assay: c-Met; details: 100 nM compound, read-out: % Enzyme Inhibition @ 100 nM c-MET
# Description: (§1) Kinase assays were performed using additional compounds against a panel of 4 kinases: AXL; c-Met; c-Mer; and Trk C. Each compound was tested at a concentration of 0.1 M in single duplicate mode against the 4 kinases. Compounds were prepared as 10 mM stock solutions in DMSO prior to use in the assay. […] IC50 values and curve fits were obtained using Prism (GraphPad Software).
# (§2) The screening was performed using the “HotSpot” assay platform. The assay measures the conversion of a peptide substrate to ^33P-labelled phosphorylated product. Briefly, specific kinase/substrate pairs along with required cofactors were prepared in reaction buffer. Specifically, the substrate was prepared in reaction buffer (20 mM Hepes, pH 7.5; 10 mM MgCl2; 1 mM EGTA; 0.02% Brij35; 0.02 mg/mL BSA; 0.1 mM Na3VO4; 2 mM DTT; 1% DMSO), followed by delivery of any required cofactor to the resulting substrate solution. The corresponding kinase was delivered into the substrate solution and the reaction mixture was mixed gently. Compound was delivered into the reaction mixture, followed 15-20 minutes later by addition of a mixture of ATP (Sigma, St. Louis Mo.) and ^33P ATP (specific activity 0.01 μCi/μL final; Perkin Elmer, Waltham, Mass.) to a final concentration of 10 μM-30 μM to initiate the reaction. […] The percent of enzyme inhibition was calculated based on the percent of remaining kinase activity.
# AXL = biological target: T1, AXL (Homo sapiens, UniProt P30530); test: HotSpot kinase assay: AXL; details: 100 nM compound, read-out: % Enzyme Inhibition @ 100 nM AXL
# T1 sequence (P30530 26-894): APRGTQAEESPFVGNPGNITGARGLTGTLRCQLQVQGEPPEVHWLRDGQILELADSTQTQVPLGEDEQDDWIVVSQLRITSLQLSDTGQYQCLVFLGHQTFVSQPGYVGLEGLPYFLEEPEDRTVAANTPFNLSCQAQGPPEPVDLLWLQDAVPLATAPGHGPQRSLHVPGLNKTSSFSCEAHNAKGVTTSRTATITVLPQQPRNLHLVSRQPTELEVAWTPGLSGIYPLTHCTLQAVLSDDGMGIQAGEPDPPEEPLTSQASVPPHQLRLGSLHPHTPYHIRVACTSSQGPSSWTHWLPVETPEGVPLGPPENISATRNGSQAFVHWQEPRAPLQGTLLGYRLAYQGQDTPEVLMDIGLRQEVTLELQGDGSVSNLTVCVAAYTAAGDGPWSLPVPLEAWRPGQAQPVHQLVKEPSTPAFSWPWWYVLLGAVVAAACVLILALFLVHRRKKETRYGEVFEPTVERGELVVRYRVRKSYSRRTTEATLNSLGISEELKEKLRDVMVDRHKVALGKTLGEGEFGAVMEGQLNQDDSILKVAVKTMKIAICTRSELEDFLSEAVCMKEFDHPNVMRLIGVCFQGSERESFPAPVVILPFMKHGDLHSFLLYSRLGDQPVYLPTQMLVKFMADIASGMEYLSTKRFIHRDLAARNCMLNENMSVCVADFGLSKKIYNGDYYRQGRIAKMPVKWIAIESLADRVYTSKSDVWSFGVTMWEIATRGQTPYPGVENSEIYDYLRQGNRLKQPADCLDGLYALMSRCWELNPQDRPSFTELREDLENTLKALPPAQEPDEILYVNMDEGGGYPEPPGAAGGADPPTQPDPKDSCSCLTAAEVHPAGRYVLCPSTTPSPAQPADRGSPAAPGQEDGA
# Description: as §1, §2
# c-Mer = biological target: T2, c-Mer (Homo sapiens, UniProt Q12866); test: HotSpot kinase assay: c-Mer; details: 100 nM compound, read-out: % Enzyme Inhibition @ 100 nM c-MER
# T2 sequence (Q12866 21-999): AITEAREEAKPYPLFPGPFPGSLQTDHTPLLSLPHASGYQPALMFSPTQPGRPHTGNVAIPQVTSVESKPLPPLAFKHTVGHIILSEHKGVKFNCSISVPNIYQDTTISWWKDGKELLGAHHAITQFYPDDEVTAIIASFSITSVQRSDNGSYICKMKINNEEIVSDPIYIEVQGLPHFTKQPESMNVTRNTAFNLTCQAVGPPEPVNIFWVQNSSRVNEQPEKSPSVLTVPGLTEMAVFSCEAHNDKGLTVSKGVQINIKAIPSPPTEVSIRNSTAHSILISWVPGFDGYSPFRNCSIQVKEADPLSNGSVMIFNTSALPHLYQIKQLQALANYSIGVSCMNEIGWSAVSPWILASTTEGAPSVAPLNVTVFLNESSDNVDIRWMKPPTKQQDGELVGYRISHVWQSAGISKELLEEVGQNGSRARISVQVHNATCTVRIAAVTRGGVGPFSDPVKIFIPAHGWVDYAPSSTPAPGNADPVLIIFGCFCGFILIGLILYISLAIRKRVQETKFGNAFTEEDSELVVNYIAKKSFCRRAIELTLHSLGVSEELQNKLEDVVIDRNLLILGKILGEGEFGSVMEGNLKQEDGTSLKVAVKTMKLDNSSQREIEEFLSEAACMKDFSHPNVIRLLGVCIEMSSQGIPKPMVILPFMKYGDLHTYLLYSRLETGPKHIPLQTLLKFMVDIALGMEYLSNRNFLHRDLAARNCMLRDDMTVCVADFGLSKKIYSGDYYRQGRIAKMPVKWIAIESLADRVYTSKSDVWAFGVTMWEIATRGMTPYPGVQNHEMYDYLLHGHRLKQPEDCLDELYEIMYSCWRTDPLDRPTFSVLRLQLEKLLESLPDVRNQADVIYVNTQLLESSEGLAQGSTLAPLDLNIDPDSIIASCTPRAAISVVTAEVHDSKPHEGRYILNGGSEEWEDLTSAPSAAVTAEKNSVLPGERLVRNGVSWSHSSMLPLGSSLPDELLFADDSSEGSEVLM
# Description: as §1, §2
# Trk C = Trk C (Homo sapiens, UniProt Q16288); test: HotSpot kinase assay: Trk C; details: 100 nM compound, HotSpot; for inhibition at 0.1 µM: read-out: % Enzyme Inhibition @ 100 nM Trk C
# Description: (§3) Each compound was tested at a concentration of 0.1 μM in single duplicate mode against the 3 kinases. Compounds were prepared as 10 mM stock solutions in DMSO prior to use in the assay. […] IC50 values and curve fits were obtained using Prism (GraphPad Software).
# as §2, §1
# Trk B = Trk B (Homo sapiens, UniProt Q16620); test: HotSpot kinase assay: Trk B; details: 100 nM compound; for inhibition at 0.1 µM: read-out: % Enzyme Inhibition @ 100 nM Trk B
# Description: as §3, §2
# Trk A = Trk A (Homo sapiens, UniProt P04629); test: HotSpot kinase assay: Trk A; details: 100 nM compound; for inhibition at 0.1 µM: read-out: % Enzyme Inhibition @ 100 nM Trk A
# Description: as §1, with “of 3” for “of 4”, “kinases: Trk A; Trk B;” for “kinases: AXL; c-Met; c-Mer;”, “0.1 μM” for “0.1 M”, “the 3” for “the 4”, “Software). […]” for “Software).”
# The screening was performed using the “HotSpot” assay platform. The assay measures the conversion of a peptide substrate to ^33P-labelled phosphorylated product. Briefly, specific kinase/substrate pairs along with required cofactors were prepared in reaction buffer. Specifically, the substrate was prepared in reaction buffer (20 mM Hepes, pH 7.5; 10 mM MgCl2; 1 mM EGTA; 0.02% Brij35; 0.02 mg/mL BSA; 0.1 mM Na3VO4; 2 mM DTT; 1% DMSO), followed by delivery of any required cofactor to the resulting substrate solution. The corresponding kinase was delivered into the substrate solution and the reaction mixture was mixed gently. Compound was delivered into the reaction mixture, followed 15-20 minutes later by addition of a mixture of ATP (Sigma, St. Louis Mo.) and ^33P ATP (specific activity 0.01 μCi/μL final; Perkin Elmer, Waltham, Mass.) to a final concentration of 10 μM-30 μM to initiate the reaction. Reactions were carried out at room temperature for 120 minutes, followed by spotting of the reactions onto P81 ion exchange filter paper (Whatman #3698-915; Whatman Inc., Piscataway, N.J.). Unbound phosphate was removed by extensive washing of filters in 0.75% phosphoric acid. […] The percent of enzyme inhibition was calculated based on the percent of remaining kinase activity.
# IGF-1R = biological target: T3, IGF-1R (Homo sapiens, UniProt P08069); test: In vitro IGF-1R enzymatic assay (ADP-Glo kinase assay); details: activated IGF-1R, 1 μM, in duplicate; read-out: inhibition of binding
# T3 construct: purchased Millipore 14-802
# Description: IC50 values of the compounds of the invention against IGF-1R and IR were measured in vitro using an ADP-Glo kinase assay Kit (Promega). […] Kinase reactions in both assays were conducted at 30° C. for 20 min with increasing concentrations of compounds of the invention.
# Additional compounds of the invention were screened against activated IGF-1R.
# IR = biological target: T4, IR (Homo sapiens, UniProt P06213); test: In vitro IR enzymatic assay (ADP-Glo kinase assay); details: activated IR, in duplicate, read-out: inhibition of binding
# T4 construct: purchased Millipore 14-803
# T3 sequence (P08069 31-1367): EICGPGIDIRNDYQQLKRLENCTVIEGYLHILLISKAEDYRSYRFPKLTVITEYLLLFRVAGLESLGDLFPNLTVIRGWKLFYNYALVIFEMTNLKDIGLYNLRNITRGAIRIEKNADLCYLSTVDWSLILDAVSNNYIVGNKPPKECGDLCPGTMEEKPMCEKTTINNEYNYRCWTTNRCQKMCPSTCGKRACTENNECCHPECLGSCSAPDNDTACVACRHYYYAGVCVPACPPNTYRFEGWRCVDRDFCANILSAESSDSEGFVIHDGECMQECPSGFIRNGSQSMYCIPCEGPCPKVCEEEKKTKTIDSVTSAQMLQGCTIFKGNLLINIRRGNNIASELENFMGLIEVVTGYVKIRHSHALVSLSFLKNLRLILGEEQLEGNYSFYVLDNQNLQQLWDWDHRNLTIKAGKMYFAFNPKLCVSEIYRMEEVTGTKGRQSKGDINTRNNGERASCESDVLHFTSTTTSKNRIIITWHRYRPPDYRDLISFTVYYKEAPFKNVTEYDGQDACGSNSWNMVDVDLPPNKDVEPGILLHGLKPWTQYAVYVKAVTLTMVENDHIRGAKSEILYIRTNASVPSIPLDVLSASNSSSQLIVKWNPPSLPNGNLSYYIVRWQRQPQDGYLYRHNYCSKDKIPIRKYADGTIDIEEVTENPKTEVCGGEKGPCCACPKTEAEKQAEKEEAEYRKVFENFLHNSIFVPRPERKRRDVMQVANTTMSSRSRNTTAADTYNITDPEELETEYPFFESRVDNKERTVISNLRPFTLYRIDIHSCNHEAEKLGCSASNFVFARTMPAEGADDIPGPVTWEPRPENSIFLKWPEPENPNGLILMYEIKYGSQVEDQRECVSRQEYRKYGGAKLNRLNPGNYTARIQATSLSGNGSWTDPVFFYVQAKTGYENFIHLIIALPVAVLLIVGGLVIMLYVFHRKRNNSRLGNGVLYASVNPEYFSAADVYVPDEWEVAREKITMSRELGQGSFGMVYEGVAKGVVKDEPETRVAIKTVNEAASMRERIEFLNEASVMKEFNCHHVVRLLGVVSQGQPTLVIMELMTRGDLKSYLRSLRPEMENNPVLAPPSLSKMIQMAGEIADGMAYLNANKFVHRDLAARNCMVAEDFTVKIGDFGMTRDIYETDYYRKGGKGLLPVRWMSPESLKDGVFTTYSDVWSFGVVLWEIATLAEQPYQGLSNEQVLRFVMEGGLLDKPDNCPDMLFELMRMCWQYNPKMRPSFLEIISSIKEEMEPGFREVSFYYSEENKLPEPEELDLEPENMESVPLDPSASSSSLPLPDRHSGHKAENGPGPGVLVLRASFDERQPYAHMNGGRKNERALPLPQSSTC
# Sequence of c-Met (P08581 25-1390): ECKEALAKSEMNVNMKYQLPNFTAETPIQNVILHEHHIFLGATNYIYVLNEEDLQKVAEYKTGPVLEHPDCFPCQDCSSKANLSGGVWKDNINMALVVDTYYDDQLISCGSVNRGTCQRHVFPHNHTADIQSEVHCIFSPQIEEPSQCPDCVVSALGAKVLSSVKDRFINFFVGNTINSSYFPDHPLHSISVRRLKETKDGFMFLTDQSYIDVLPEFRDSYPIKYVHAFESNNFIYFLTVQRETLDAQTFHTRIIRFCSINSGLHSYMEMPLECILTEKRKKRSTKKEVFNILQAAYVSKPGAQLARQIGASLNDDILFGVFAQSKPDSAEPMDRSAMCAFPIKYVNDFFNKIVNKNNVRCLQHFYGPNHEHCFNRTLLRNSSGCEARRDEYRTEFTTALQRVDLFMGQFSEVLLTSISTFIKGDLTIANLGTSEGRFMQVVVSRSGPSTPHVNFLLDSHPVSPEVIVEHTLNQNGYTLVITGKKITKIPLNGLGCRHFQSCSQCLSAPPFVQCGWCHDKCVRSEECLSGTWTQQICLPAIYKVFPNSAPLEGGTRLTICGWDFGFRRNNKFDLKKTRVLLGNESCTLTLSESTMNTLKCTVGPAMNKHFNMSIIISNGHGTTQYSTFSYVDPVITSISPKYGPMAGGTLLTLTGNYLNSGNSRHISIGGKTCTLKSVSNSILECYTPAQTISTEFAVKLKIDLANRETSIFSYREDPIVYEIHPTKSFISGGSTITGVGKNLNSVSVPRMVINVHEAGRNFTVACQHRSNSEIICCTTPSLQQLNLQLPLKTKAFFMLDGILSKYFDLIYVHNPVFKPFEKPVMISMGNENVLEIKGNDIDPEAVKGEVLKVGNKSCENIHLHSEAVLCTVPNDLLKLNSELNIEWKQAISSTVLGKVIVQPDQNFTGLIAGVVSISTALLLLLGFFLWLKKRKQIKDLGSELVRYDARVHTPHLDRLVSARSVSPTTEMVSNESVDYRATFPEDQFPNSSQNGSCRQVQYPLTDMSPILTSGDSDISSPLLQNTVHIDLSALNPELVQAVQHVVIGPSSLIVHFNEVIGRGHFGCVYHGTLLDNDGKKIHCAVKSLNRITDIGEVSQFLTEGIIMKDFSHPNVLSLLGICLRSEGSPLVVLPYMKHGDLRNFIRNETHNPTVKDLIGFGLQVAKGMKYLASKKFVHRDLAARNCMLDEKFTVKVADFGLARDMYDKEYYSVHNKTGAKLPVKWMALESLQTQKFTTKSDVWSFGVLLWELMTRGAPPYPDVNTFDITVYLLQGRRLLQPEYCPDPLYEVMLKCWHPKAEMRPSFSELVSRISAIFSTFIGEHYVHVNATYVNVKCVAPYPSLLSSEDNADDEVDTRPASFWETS
# Sequence of Trk C (Q16288 32-839): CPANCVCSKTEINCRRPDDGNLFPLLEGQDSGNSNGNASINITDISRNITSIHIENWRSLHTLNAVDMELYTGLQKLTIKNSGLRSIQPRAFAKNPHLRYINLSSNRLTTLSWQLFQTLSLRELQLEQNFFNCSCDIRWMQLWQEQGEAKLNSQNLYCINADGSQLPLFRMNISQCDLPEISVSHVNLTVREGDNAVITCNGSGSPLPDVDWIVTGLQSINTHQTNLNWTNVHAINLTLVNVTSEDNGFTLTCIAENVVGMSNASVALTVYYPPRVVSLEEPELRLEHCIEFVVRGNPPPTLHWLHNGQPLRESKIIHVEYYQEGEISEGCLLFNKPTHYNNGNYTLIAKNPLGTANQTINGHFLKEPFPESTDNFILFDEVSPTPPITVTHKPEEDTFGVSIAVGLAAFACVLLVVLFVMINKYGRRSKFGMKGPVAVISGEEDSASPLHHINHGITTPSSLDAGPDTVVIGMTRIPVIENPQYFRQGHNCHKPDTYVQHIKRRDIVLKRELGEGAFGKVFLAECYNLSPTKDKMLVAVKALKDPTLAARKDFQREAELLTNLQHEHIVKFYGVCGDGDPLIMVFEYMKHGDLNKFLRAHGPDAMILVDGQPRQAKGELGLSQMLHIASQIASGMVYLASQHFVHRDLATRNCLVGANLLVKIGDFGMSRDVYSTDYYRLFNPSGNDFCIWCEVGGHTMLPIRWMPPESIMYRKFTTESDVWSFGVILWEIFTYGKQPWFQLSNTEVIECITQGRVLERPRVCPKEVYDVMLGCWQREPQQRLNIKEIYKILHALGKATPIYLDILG
# Sequence of Trk B (Q16620 32-822): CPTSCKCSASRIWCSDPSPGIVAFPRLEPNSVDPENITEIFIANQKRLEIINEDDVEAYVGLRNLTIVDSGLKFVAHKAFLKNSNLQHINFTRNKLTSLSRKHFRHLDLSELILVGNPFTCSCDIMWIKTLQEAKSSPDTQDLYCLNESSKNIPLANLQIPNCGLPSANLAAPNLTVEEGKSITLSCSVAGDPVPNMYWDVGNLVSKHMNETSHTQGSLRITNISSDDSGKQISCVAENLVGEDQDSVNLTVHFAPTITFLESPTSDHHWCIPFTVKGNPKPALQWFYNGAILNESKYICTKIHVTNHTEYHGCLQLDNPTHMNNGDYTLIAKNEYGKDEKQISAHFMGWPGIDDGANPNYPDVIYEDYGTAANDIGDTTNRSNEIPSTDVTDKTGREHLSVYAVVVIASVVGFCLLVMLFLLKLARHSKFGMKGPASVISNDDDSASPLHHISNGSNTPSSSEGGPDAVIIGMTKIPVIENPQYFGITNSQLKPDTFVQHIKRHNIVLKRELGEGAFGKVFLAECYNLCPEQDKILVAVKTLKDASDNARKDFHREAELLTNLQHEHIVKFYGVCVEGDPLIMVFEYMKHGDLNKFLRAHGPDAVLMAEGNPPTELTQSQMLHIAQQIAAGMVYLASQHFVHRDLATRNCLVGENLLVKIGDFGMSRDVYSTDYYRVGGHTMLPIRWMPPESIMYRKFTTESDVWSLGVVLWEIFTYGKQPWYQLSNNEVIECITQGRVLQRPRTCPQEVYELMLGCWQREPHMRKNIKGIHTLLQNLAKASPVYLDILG
# Sequence of Trk A (P04629 33-796): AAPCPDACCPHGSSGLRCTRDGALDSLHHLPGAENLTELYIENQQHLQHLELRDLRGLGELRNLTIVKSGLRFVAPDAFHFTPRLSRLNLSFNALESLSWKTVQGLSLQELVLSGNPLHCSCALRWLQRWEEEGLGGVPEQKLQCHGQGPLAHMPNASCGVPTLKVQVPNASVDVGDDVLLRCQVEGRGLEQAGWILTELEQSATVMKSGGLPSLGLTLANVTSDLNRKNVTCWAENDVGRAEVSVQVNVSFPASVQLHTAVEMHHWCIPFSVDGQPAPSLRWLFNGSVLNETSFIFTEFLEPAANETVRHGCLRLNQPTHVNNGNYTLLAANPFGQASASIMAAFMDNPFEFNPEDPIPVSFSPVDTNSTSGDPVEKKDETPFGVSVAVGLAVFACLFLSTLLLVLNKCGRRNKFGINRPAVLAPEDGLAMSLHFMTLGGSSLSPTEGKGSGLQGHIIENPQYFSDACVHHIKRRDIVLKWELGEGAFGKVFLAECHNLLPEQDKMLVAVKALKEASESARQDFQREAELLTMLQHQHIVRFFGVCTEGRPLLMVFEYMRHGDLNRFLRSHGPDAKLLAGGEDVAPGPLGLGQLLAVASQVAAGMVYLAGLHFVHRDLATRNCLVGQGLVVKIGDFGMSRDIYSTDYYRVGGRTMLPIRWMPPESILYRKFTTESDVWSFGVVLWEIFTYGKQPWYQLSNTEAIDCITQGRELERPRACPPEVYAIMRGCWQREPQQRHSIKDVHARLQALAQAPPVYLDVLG
inhibition at 0.1 µM (c-Met),inhibition at 0.1 µM (AXL),inhibition at 0.1 µM (c-Mer),inhibition at 0.1 µM (Trk C),inhibition at 0.1 µM (Trk B),inhibition at 0.1 µM (Trk A),inhibition at 1 µM (IGF-1R),inhibition at 1 µM (IR),% Enzyme Inhibition @ 100 nM Trk B (Trk B),% Enzyme Inhibition @ 100 nM Trk C (Trk C),% Enzyme Inhibition @ 100 nM Trk A (Trk A),Compound
< 39%,< 39%,< 39%,< 39%,–,–,–,–,–,–,–,"O=C(Nc1ccc(F)nc1)C1CCCN1c1nc2c(c(Nc3ccc(=O)[nH]n3)n1)CCC2 (stereo not shown) [Compound 101b, N-(6-fluoropyridin-3-yl)-1-(4-(6-oxo-1,6-dihydropyridazin-3-ylamino)-6,7-dihydro-5H-cyclopenta[d]pyrimidin-2-yl)pyrrolidine-2-carboxamide]"
< 39%,< 39%,< 39%,< 39%,–,–,–,–,–,–,–,"O=C(Nc1ccc(F)nc1)C1CCCN1c1nc2c(c(Nc3ccccn3)n1)CCC2 (stereo not shown) [Compound 102a, N-(6-fluoropyridin-3-yl)-1-(4-(pyridin-2-ylamino)-6,7-dihydro-5H-cyclopenta[d]pyrimidin-2-yl)pyrrolidine-2-carboxamide]"
< 39%,< 39%,< 39%,< 39%,–,–,–,–,–,–,–,"O=C(Nc1nccs1)C1CCCN1c1nc2c(c(Nc3ncccn3)n1)CCC2 (stereo not shown) [Compound 105a, 1-(4-(pyrimidin-2-ylamino)-6,7-dihydro-5H-cyclopenta[d]pyrimidin-2-yl)-N-(thiazol-2-yl)pyrrolidine-2-carboxamide]"
–,–,–,> 60%,> 60%,> 60%,< 35%,≤ 40%,–,–,–,"O=C(C1CCCN1c1nc2c(c(Nc3cc(C4CCCC4)[nH]n3)n1)CCC2)N1CCCC1 (stereo not shown) [Compound 112a, (1-(4-(5-cyclopentyl-1H-pyrazol-3-ylamino)-6,7-dihydro-5H-cyclopenta[d]pyrimidin-2-yl)pyrrolidin-2-yl)(pyrrolidin-1-yl)methanone]"
–,–,–,–,–,–,< 35%,≤ 40%,"+ (Low (39% or lower inhibition, +))","++ (Medium (40 to 59% inhibition, ++))","++ (Medium (40 to 59% inhibition, ++))","O=C(C1CCCN1c1nc2c(c(Nc3cc(C4CCCCC4)[nH]n3)n1)CCC2)N1CCCCC1 (stereo not shown) [Compound 113a, (1-(4-(5-cyclohexyl-1H-pyrazol-3-ylamino)-6,7-dihydro-5H-cyclopenta[d]pyrimidin-2-yl)pyrrolidin-2-yl)(piperidin-1-yl)methanone]"
–,–,–,–,–,–,< 35%,≤ 40%,"++ (Medium (40 to 59% inhibition, ++))","++ (Medium (40 to 59% inhibition, ++))","++ (Medium (40 to 59% inhibition, ++))","CN(C)C(=O)C1CCCN1c1nc2c(c(Nc3cc(C4CCCCC4)[nH]n3)n1)CCC2 (stereo not shown) [Compound 114a, 1-(4-(5-cyclohexyl-1H-pyrazol-3-ylamino)-6,7-dihydro-5H-cyclopenta[d]pyrimidin-2-yl)-N,N-dimethylpyrrolidine-2-carboxamide]"
–,–,–,> 60%,> 60%,< 39%,< 35%,≤ 40%,–,–,–,"CN(C)C(=O)C1CCCN1c1nc2c(c(Nc3cc(C4CCCC4)[nH]n3)n1)CCC2 (stereo not shown) [Compound 115a, 1-(4-(5-cyclopentyl-1H-pyrazol-3-ylamino)-6,7-dihydro-5H-cyclopenta[d]pyrimidin-2-yl)-N,N-dimethylpyrrolidine-2-carboxamide]"
–,–,–,> 60%,> 60%,< 39%,< 35%,≤ 40%,–,–,–,"CCN(CC)C(=O)C1CCCN1c1nc2c(c(Nc3cc(C4CCCC4)[nH]n3)n1)CCC2 (stereo not shown) [Compound 116a, 1-(4-(5-cyclopenxyl-1H-pyrazol-3-ylamino)-6,7-dihydro-5H-cyclopenta[d]pyrimidin-2-yl)-N,N-diethylpyrrolidine-2-carboxamide]"
